Data reported in US6956040B2, “Oxazolidinone piperazinyl derivatives as potential antimicrobials” (Ranbaxy Laboratories Limited, priority 2001, dated 2005).
In brackets after ≈: the same amount, converted by molar mass.

Columns and labels:
MRSA 562 [1] = test: In vivo activity against MRSA 562 (ED50); design: species or system Staphylococcus aureus
E. faecalis 29212 = test: MIC, agar incorporation method; format: cell-based, Enterococcus faecalis; conditions: E. faecalis 29212; agar incorporation
Text: (§1) The compounds of the invention display antibacterial activity when tested by the agar incorporation method. The following minimum inhibitory concentrations (μg/ml) were obtained for representative compounds of the invention which are given below in the following tables.
(§2) • 1) S.aureus ATCC 25923—Staphylococus aureus ATCC 25923 • 2) MRSA 15187—Methicillin Resistant Staphylococcus aureus • 3) Ent. faecalis ATCC 29212—Enterococcus faecalis ATCC 29212 • 4) Ent. faecium 6A—Enterococcus faecium 6A Van®, Cipro® • 5) Strep. pne. ATCC 6303—Streptococcus pneumoniae ATCC 6303 • 6) Strep. pyog. ATCC 19615—Streptococcus pyogenes • 7) S. epidermidis—Staphylococcus epidermidis ATCC 12228
(§3) Briefly, the compounds were dissolved in DMSO and doubling dilution of the compounds were incorporated into Meuller Hilton agar before solidification. Inoculum was prepared by suspending 4 to 5 colonies into 5 ml of normal saline solution and adjusting the turbidity to 0.5 Macfarland turbidity standard tables (1.5×10^8 CFU/ml), after appropriate dilutions, 10^4 CFU/spot was transfered into the surface of dried plate and incubated for 18 hours (24 hours for MRSN studies). The concentration showing no growth of the inoculated culture was recorded as the MIC. Appropriate ATCC standard strains were simultaneously tested and result recorded only when the MIC's against standard antibiotics were within the acceptable range.

S. pyogenes 19615 = test: MIC, agar incorporation method; format: cell-based, Streptococcus pyogenes; conditions: S. pyogenes 19615; agar incorporation
Text: as §1, §2, §3

VRE 6A = test: MIC, agar incorporation method; format: cell-based, Enterococcus faecium; conditions: VRE 6A; agar incorporation
Text: as §1, §2, §3

MRSA 33 = test: MIC, agar incorporation method; format: cell-based, Staphylococcus aureus; conditions: MRSA 33; agar incorporation
Method: as §1, §3

S. pneum AB 34 = test: MIC, agar incorporation method; format: cell-based, Streptococcus pneumoniae; conditions: S. pneum AB 34; agar incorporation
Method: as §1, §3

S. pneum 6303 = test: MIC, agar incorporation method; format: cell-based, Streptococcus pneumoniae; conditions: S. pneum 6303; agar incorporation
Text: as §1, §2, §3

S. aureus 25923 = test: MIC, agar incorporation method; format: cell-based, Staphylococcus aureus; conditions: S. aureus 25923; agar incorporation
Text: as §1, §2, §3

MRSA 15187 = test: MIC, agar incorporation method; format: cell-based, Staphylococcus aureus; conditions: MRSA 15187; agar incorporation
Text: as §1, §2, §3

E. faecalis = test: Summary of in vitro activity (MIC) against E. faecalis; format: cell-based, Enterococcus faecalis; conditions: E. faecalis; for MIC50 / MIC90: Number 7
Method: as §1, §3

MRSA 562 [2] = test: MIC, agar incorporation method; format: cell-based, Staphylococcus aureus; conditions: MRSA 562
Method: as §1, §3

S. aureus = test: Summary of in vitro activity (MIC) against S. aureus; format: cell-based, Staphylococcus aureus; conditions: S. aureus; for MIC50 / MIC90: Number 8
Method: as §1, §3

G+ve = test: Summary of in vitro activity (MIC) against G+ve bacteria; format: cell-based; conditions: for MIC50 / MIC90: G+ve, Number 49; for Geometric Mean of in vitro activity (MIC): Gram +ve
Method: as §1, §3

S. pneumoniae = test: Summary of in vitro activity (MIC) against S. pneumoniae; format: cell-based, Streptococcus pneumoniae; conditions: S. pneumoniae; for MIC50 / MIC90: Number 19
Method: as §1, §3

[3] = Changes in MIC under different conditions: Agar MIC; format: cell-based; conditions: strain not given
Method: as §1, §3

[4] = Changes in MIC under different conditions: Broth MIC; format: cell-based; conditions: strain not given

Compound	ED50 (mg/kg body weight) PO (MRSA 562 [1]) [mg/kg body weight]	MIC (E. faecalis 29212) [µg/mL]	MIC (S. pyogenes 19615) [µg/mL]	MIC (VRE 6A) [µg/mL]	MIC (MRSA 33) [µg/mL]	MIC (S. pneum AB 34) [µg/mL]	MIC (S. pneum 6303) [µg/mL]	MIC (S. aureus 25923) [µg/mL]	MIC (MRSA 15187) [µg/mL]	Geometric Mean of in vitro activity (MIC) (E. faecalis) [µg/mL]	MIC50 (E. faecalis) [µg/mL]	MIC90 (E. faecalis) [µg/mL]	MIC (MRSA 562 [2]; Table 5) [µg/mL]	Geometric Mean of in vitro activity (MIC) (S. aureus) [µg/mL]	MIC50 (S. aureus) [µg/mL]	MIC90 (S. aureus) [µg/mL]	MIC50 (G+ve) [µg/mL]	MIC90 (G+ve) [µg/mL]	Geometric Mean of in vitro activity (MIC) (G+ve) [µg/mL]	Geometric Mean of in vitro activity (MIC) (S. pneumoniae) [µg/mL]	further results
CC(=O)NC[C@H]1CN(c2ccc(N3CCN(C(=O)c4ccc(Br)o4)CC3)c(F)c2)C(=O)O1 [Compound No. 04]	>25	2 (≈ 3.93 µM)	2 (≈ 3.93 µM)	1 (≈ 1.96 µM)	2 (≈ 3.93 µM)	1 (≈ 1.96 µM)	1 (≈ 1.96 µM)	2 (≈ 3.93 µM)	2 (≈ 3.93 µM)	–	–	–	–	–	–	–	–	–	–	–	–
CC(=O)NC[C@H]1CN(c2ccc(N3CCN(C(=O)c4ccc([N+](=O)[O-])o4)CC3)c(F)c2)C(=O)O1 [Compound No. 06, (S)-N-[[3-Fluoro-4-[N-1[4-(5-nitro-2-furoyl)piperazinyl]phenyl]-2-oxo-5-oxazolidinyl]methyl]acetamide]	>25	1 (≈ 2.1 µM)	2 (≈ 4.21 µM)	1 (≈ 2.1 µM)	0.5 (≈ 1.05 µM)	2 (≈ 4.21 µM)	2 (≈ 4.21 µM)	1 (≈ 2.1 µM)	0.5 (≈ 1.05 µM)	0.92	1 (≈ 2.1 µM)	1 (≈ 2.1 µM)	1 (≈ 2.1 µM)	0.74	1 (≈ 2.1 µM)	1 (≈ 2.1 µM)	1 (≈ 2.1 µM)	2 (≈ 4.21 µM)	0.79	1.27	MIC50 (S. pneumoniae): 2 µg/mL (≈ 4.21 µM); MIC90 (S. pneumoniae): 2 µg/mL (≈ 4.21 µM)
CC(=O)NC[C@H]1CN(c2ccc(N3CCN(C(=O)C(=O)c4cccs4)CC3)c(F)c2)C(=O)O1 [Compound No. 07, (S)-N[[3-[3-Fluoro-4-[N-1[4-{2-(2-thienyl)dicarbonyl}]-piperazinyl]phenyl]2-oxo-5-oxazolidinyl]methyl]acetamide]	>25	2 (≈ 4.21 µM)	0.5 (≈ 1.05 µM)	2 (≈ 4.21 µM)	2 (≈ 4.21 µM)	2 (≈ 4.21 µM)	2 (≈ 4.21 µM)	2 (≈ 4.21 µM)	2 (≈ 4.21 µM)	–	–	–	2 (≈ 4.21 µM)	–	–	–	–	–	–	–	MIC (MRSA 562 [2]; agar incorporation, Table 1): 2 µg/mL (≈ 4.21 µM)
CC(=O)NC[C@H]1CN(c2ccc(N3CCN(Cc4ccc([N+](=O)[O-])o4)CC3)c(F)c2)C(=O)O1 [Compound No. 15, (S)-N-[[3-[3-fluoro-4-[N-1-[4-{2-furyl-(5-nitro)methyl}]piperazinyl]phenyl]-2-oxo-5-oxazolidinyl]methyl]acetamide]	4.33	2 (≈ 4.33 µM)	1 (≈ 2.17 µM)	1 (≈ 2.17 µM)	2 (≈ 4.33 µM)	2 (≈ 4.33 µM)	1 (≈ 2.17 µM)	2 (≈ 4.33 µM)	2 (≈ 4.33 µM)	1.6	2 (≈ 4.33 µM)	2 (≈ 4.33 µM)	2 (≈ 4.33 µM)	1.63	2 (≈ 4.33 µM)	2 (≈ 4.33 µM)	1 (≈ 2.17 µM)	2 (≈ 4.33 µM)	1.08	1.04	MIC (MRSA 562 [2]; agar incorporation, Table 1): 2 µg/mL (≈ 4.33 µM); MIC50 (S. pneumoniae): 2 µg/mL (≈ 4.33 µM); MIC90 (S. pneumoniae): 4 µg/mL (≈ 8.67 µM)
CC(=O)NC[C@H]1CN(c2ccc(N3CCN(Cc4ccc([N+](=O)[O-])o4)CC3)c(F)c2)C(=O)O1.Cl [Compound No. 16]	–	2	0.5	4	4	1	1	2	4	–	–	–	–	–	–	–	–	–	–	–	Agar MIC [3]: 2 µg/mL; Broth MIC +50% Sheep serum ([4]; +50% Sheep serum): 2 µg/mL; Broth MIC Normal MH broth ([4]; Normal MH broth): 2 µg/mL
CC(=O)NC[C@H]1CN(c2ccc(N3CCC(N(C)Cc4ccc([N+](=O)[O-])o4)CC3)c(F)c2)C(=O)O1 [Compound No. 50, (S)-N-[[3-[4-[4-(N-methyl-N-2-furyl(5-nitro)methyl)-aminopiperidine-1-yl]-3-fluorophenyl]-2oxo-oxazolidin-5-yl]methyl]acetamide]	–	0.5 (≈ 1.02 µM)	0.125 (≈ 0.255 µM)	0.25 (≈ 0.511 µM)	1 (≈ 2.04 µM)	2 (≈ 4.09 µM)	0.5 (≈ 1.02 µM)	1 (≈ 2.04 µM)	1 (≈ 2.04 µM)	0.42	0.5 (≈ 1.02 µM)	1 (≈ 2.04 µM)	0.5 (≈ 1.02 µM)	1	1 (≈ 2.04 µM)	2 (≈ 4.09 µM)	1 (≈ 2.04 µM)	2 (≈ 4.09 µM)	0.72	1.41	MIC (MRSA 562 [2]; agar incorporation, Table 1): 0.5 µg/mL (≈ 1.02 µM); MIC50 (S. pneumoniae): 1 µg/mL (≈ 2.04 µM); MIC90 (S. pneumoniae): 2 µg/mL (≈ 4.09 µM)
CC(=O)NC[C@H]1CN(c2ccc(N3CCN(Cc4ccc(NC=O)o4)CC3)c(F)c2)C(=O)O1 [Compound No. 67]	>25	–	–	–	–	–	–	–	–	–	–	–	2 (≈ 4.35 µM)	–	–	–	–	–	–	–	–
CC(=O)NC[C@H]1CN(c2ccc(N3CC4C(C3)C4N(C)C(=O)Cc3cccs3)c(F)c2)C(=O)O1 (stereo partly drawn) [Compound No. 71, (S)-N-[[3-[3-Fluoro[4-[3-(1α, 5α, 6α)-6-[N-(2-thiopheneacetyl)-N-methyl]amino]-3-azabicyclo-[3.1.0]hexane]phenyl]-2-oxo-5-oxazolidinyl]methyl]acetamide]	>25	4 (≈ 8.22 µM)	2 (≈ 4.11 µM)	4 (≈ 8.22 µM)	4 (≈ 8.22 µM)	4 (≈ 8.22 µM)	4 (≈ 8.22 µM)	4 (≈ 8.22 µM)	4 (≈ 8.22 µM)	–	–	–	4 (≈ 8.22 µM)	–	–	–	–	–	–	–	–
